The values below come from patent US20250145633A1, “SUBSTITUTED FURANOPYRIMIDINE COMPOUNDS AS PDE1 INHIBITORS” (Dart NeuroScience, LLC, priority 2017, published 2025).

The assay concerns the target human PDE1B enzyme (Homo sapiens (Human), UniProt Q01064). In words: IMAP TR-FRET PDE1B enzymatic assay. It is filed as biochemical. The conditions noted are these: negative log of half-maximal molar inhibitory concentration, 200 nM FAM-cAMP, values given as bins; for IC50: read-out: PDE1b (pIC50) (converted). A digest of the protocol: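 Full-length GST-tagged human PDE1B (250 pg/well) in IMAP BSA buffer with 10 U/ml calmodulin and 2.5 mM CaCl2; compound pre-incubated 5 min at room temperature, then 200 nM (final) FAM-cAMP for 30 min. IMAP binding reagent/Tb added, 1 h; TR-FRET 520/490 ratio read. IC50 from sigmoidal dose-response fit.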

In the case of `Cc1cc(CNC(=O)c2c(C)oc3ncnc(NC4(C)CC4)c23)no1` [Example 113, 6-Methyl-N-[(5-methyl-1,2-oxazol-3-yl)methyl]-4-[(1-methylcyclopropyl)amino]furo[2,3-d]pyrimidine-5-carboxamide], the IC50 is 10 to 100 nM.
For `Cc1oc2ncnc(NC3(C)CC3)c2c1C(=O)N[C@H]1[C@@H]2COC[C@@H]21` [Example 114, 6-Methyl-4-[(1-methylcyclopropyl)amino]-N-[(1R,5S,6R)-3-oxabicyclo[3.1.0]hexan-6-yl]furo[2,3-d]pyrimidine-5-carboxamide], the IC50 is 10 to 100 nM.
The same measure, in the same setting: with `Cc1oc2ncnc(NC3(C)CC3)c2c1C(=O)NCc1cncn1C` [Example 115, 6-Methyl-N-[(1-methyl-1H-imidazol-5-yl)methyl]-4-[(1-methylcyclopropyl)amino]furo[2,3-d]pyrimidine-5-carboxamide] the figure was 100 to 1000 nM.
Still for that read-out and setting: with `Cc1oc2ncnc(NC3(C)CC3)c2c1C(=O)NCc1cn(C)cn1` [Example 116, 6-Methyl-N-[(1-methyl-1H-imidazol-4-yl)methyl]-4-[(1-methylcyclopropyl)amino]furo[2,3-d]pyrimidine-5-carboxamide] the figure was 10 to 100 nM; with `Cc1oc2ncnc(NC3(C)CC3)c2c1C(=O)N1CCOCC1` [Example 117, 6-Methyl-N-(1-methylcyclopropyl)-5-(morpholine-4-carbonyl)furo[2,3-d]pyrimidin-4-amine], 100 to 1000 nM; with `Cc1oc2ncnc(NC3(C)CC3)c2c1C(=O)N1CCOC(c2ccccn2)C1` (centres unmarked) [Example 118, 6-Methyl-N-(1-methylcyclopropyl)-5-[2-(pyridin-2-yl)morpholine-4-carbonyl]furo[2,3-d]pyrimidin-4-amine], 10 to 100 nM.
For `Cc1oc2ncnc(NC3(C)CC3)c2c1C(=O)N1CCOC(c2ccncc2)C1` (centres unmarked) [Example 119, 6-Methyl-N-(1-methylcyclopropyl)-5-[2-(pyridin-4-yl)morpholine-4-carbonyl]furo[2,3-d]pyrimidin-4-amine], the IC50 is 100 to 1000 nM.
With `Cc1oc2ncnc(NC3(C)CC3)c2c1C(=O)N1CCOC(c2cccnc2)C1` (centres unmarked) [Example 120, 6-Methyl-N-(1-methylcyclopropyl)-5-[2-(pyridin-3-yl)morpholine-4-carbonyl]furo[2,3-d]pyrimidin-4-amine], the IC50 was 100 to 1000 nM.
For the molecule `Cc1oc2ncnc(NC3(C)CC3)c2c1C(=O)N1CCOC(c2cnn(C)c2)C1` (centres unmarked) [Example 121, 6-Methyl-5-[2-(1-methyl-1H-pyrazol-4-yl)morpholine-4-carbonyl]-N-(1-methylcyclopropyl)furo[2,3-d]pyrimidin-4-amine], the IC50 is 100 to 1000 nM.
For `Cc1oc2ncnc(NC3(C)CC3)c2c1C(=O)N1CCOC(c2ccc(F)cc2)C1` (centres unmarked) [Example 122, 5-[2-(4-Fluorophenyl)morpholine-4-carbonyl]-6-methyl-N-(1-methylcyclopropyl)furo[2,3-d]pyrimidin-4-amine], the “PDE1b (pIC50)” value is greater than 8.
Turning to `COc1ccc(C2CN(C(=O)c3c(C)oc4ncnc(NC5(C)CC5)c34)CCO2)cc1` (centres unmarked) [Example 123, 5-[2-(4-Methoxyphenyl)morpholine-4-carbonyl]-6-methyl-N-(1-methylcyclopropyl)furo[2,3-d]pyrimidin-4-amine], the IC50 was 100 to 1000 nM.
On the same count and under the same terms, the figure for `Cc1oc2ncnc(NC3(C)CC3)c2c1C(=O)NC1CC1` [Example 124, N-Cyclopropyl-6-methyl-4-[(1-methylcyclopropyl)amino]furo[2,3-d]pyrimidine-5-carboxamide] is 10 to 100 nM.
`Cc1oc2ncnc(NC3(C)CC3)c2c1C(=O)NCCF` [Example 125, N-(2-Fluoroethyl)-6-methyl-4-[(1-methylcyclopropyl)amino]furo[2,3-d]pyrimidine-5-carboxamide]: the IC50 is 10 to 100 nM.
On to `Cc1oc2ncnc(NC3(C)CC3)c2c1C(=O)N[C@H]1C[C@H](F)C1` [Example 126, 6-Methyl-4-[(1-methylcyclopropyl)amino]-N-[(1R,3R)-3-fluorocyclobutyl]furo[2,3-d]pyrimidine-5-carboxamide], for which the IC50 was 10 to 100 nM.
For `Cc1oc2ncnc(NC3(C)CC3)c2c1C(=O)N[C@H]1C[C@@H](F)C1` [Example 127, 6-Methyl-4-[(1-methylcyclopropyl)amino]-N-[(1S,3S)-3-fluorocyclobutyl]furo[2,3-d]pyrimidine-5-carboxamide], the IC50 is 100 to 1000 nM.
The same measure, in the same setting: the figure for `Cc1oc2ncnc(NC3(C)CC3)c2c1C(=O)NC1CC(F)(F)C1` [Example 128, N-(3,3-Difluorocyclobutyl)-6-methyl-4-[(1-methylcyclopropyl)amino]furo[2,3-d]pyrimidine-5-carboxamide] is 100 to 1000 nM.
With `Cc1oc2ncnc(NC3(C)CC3)c2c1C(=O)NC1(C2CC2)CCOCC1` [Example 129, N-(4-Cyclopropyloxan-4-yl)-6-methyl-4-[(1-methylcyclopropyl)amino]furo[2,3-d]pyrimidine-5-carboxamide], the IC50 was 10 to 100 nM.
On to `Cc1oc2ncnc(NC3(C)CC3)c2c1C(=O)NC1(c2ccccc2)COC1` [Example 130, 6-Methyl-4-[(1-methylcyclopropyl)amino]-N-(3-phenyloxetan-3-yl)furo[2,3-d]pyrimidine-5-carboxamide], for which the IC50 is 10 to 100 nM.
On to `Cc1oc2ncnc(NC3(C)CC3)c2c1C(=O)N1CCC(c2ccc(C(F)F)cc2)C1` (centres unmarked) [Example 131, 5-{3-[4-(Difluoromethyl)phenyl]pyrrolidine-1-carbonyl}-6-methyl-N-(1-methylcyclopropyl)furo[2,3-d]pyrimidin-4-amine], for which the “PDE1b (pIC50)” value is greater than 8.
The same measure, in the same setting: the figure for `Cc1oc2ncnc(NC3(C)CC3)c2c1C(=O)N1CCC(F)(c2ccccc2)C1` (centres unmarked) [Example 132, 5-(3-Fluoro-3-phenylpyrrolidine-1-carbonyl)-6-methyl-N-(1-methylcyclopropyl)furo[2,3-d]pyrimidin-4-amine] is greater than 8.
The same measure, in the same setting: the figure for `Cc1oc2ncnc(NC3(C)CC3)c2c1C(=O)N1CCC(F)(c2ccc(F)cc2)C1` (centres unmarked) [Example 133, 5-[3-Fluoro-3-(4-fluorophenyl)pyrrolidine-1-carbonyl]-6-methyl-N-(1-methylcyclopropyl)furo[2,3-d]pyrimidin-4-amine] is greater than 8.
In the case of `Cc1oc2ncnc(NC3(C)CC3)c2c1C(=O)NCCO` [Example 134, N-(2-Hydroxyethyl)-6-methyl-4-[(1-methylcyclopropyl)amino]furo[2,3-d]pyrimidine-5-carboxamide], the IC50 was 100 to 1000 nM.
As to `Cc1oc2ncnc(NC3(C)CC3)c2c1C(=O)NC(C)(C)CCO` [Example 135, N-(4-Hydroxy-2-methylbutan-2-yl)-6-methyl-4-[(1-methylcyclopropyl)amino]furo[2,3-d]pyrimidine-5-carboxamide], the “PDE1b (pIC50)” value is recorded as greater than 8.
`Cc1oc2ncnc(NC3(C)CC3)c2c1C(=O)NC(C)C` [Example 136, 6-Methyl-4-[(1-methylcyclopropyl)amino]-N-(propan-2-yl)furo[2,3-d]pyrimidine-5-carboxamide]: the IC50 is 10 to 100 nM.
Take `Cc1oc2ncnc(NC3(C)CC3)c2c1C(=O)NCC(C)C` [Example 137, 6-Methyl-4-[(1-methylcyclopropyl)amino]-N-(2-methylpropyl)furo[2,3-d]pyrimidine-5-carboxamide]: the IC50 was 10 to 100 nM.
Same read-out and setting: with `Cc1oc2ncnc(NC3(C)CC3)c2c1C(=O)NC(C)(C)C` [Example 138, N-tert-Butyl-6-methyl-4-[(1-methylcyclopropyl)amino]furo[2,3-d]pyrimidine-5-carboxamide] the figure was 10 to 100 nM.
